According to US7141598B2, “Imidazole derivatives, production method thereof and use thereof” (Takeda Pharmaceutical Company, Ltd., priority 2000, dated 2006):

Assays:
steroid C17,20-lyase = biological target: T1, steroid C17,20-lyase (Rattus norvegicus, UniProt P11715); experiment: Assay of steroid C17,20-lyase-inhibitory activity in rat (testis microsome); type: biochemical; details: male SD rat orchis microsome, 10 nM [1.2-3H]-17α-hydroxyprogesterone, 37° C., 7 min; read-out: IC50 (steroid C17,20-lyase inhibition)
T1 construct: The orchis was homogenized and centrifuged to prepare a microsome; from tissue; host or cells: testis (orchis) microsomes of 13-week-old male SD rat
T1 sequence (P11715 1-507): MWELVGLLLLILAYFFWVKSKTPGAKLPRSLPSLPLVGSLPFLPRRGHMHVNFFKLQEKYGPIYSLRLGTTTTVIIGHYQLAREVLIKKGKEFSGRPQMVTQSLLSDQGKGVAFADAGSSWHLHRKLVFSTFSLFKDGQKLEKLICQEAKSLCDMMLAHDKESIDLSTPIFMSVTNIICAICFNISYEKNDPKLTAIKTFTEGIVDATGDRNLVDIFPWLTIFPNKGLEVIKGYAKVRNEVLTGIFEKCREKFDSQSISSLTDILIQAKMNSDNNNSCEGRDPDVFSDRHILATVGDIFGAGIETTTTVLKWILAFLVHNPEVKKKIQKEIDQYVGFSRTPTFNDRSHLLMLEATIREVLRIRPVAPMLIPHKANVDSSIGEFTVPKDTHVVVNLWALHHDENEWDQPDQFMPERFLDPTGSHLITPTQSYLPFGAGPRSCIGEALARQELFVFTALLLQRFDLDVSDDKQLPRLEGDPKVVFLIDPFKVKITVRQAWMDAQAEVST
Protocol: Assay of steroid C17,20-Lyase-Inhibitory Activity in Rat
The assay was performed according to The Prostate, Vol. 26, 140–150 (1995).
The orchis was removed from 13-week-old male SD rat. The orchis was homogenized and centrifuged to prepare a microsome. The [1.2-^3H]-17α-hydroxyprogesterone having a final concentration of 10 nM, NADPH solution and the test compound were dissolved in a 100 mM phosphate buffer solution (10 μl, pH 7.4). Microsome protein (7 μg/10 μl) was added and the mixture was incubated at 37° C. for 7 min. Ethyl acetate (40 μl) was added and the mixture was centrifuged, and the substrate and the product (androstenedione and testosterone) in the supernatant were separated by a silica gel thin layer chromatography (TLC). The spot was detected and quantitatively assayed by a BAS 2000 bioimage analyzer.

[1] = test system: testosterone biosynthesis; experiment: Assay of inhibitory effect on testosterone biosynthesis in rats; type: in vivo; details: 25 mg/kg oral, male SD rat, serum testosterone 2 h after administration, relative to control group
Protocol: Assay of Inhibitory Effect on Testosterone Biosynthesis in Rats
The test compound (25 mg/kg) was orally administered to 9-week-old male SD (Sprague Dawley) rat. Blood was taken at 2 h after administration of the compound and the concentration of testosterone in the obtained serum was assayed by radioimmunoassay. The proportion (T/C, %) of testosterone concentration of the test drug administration group relative to the testosterone concentration of the control group was calculated to determine testosterone synthesis-inhibitory activity.

human CYP3A4 = biological target: T2, human CYP3A4 (Homo sapiens, UniProt P08684); experiment: Assay of human CYP3A4-inhibitory activity; type: biochemical; details: testosterone 100 μM, human CYP3A4 10 pmol/ml, 37° C., 30 min; read-out: IC50 (CYP3A4 inhibition, 6β-hydroxytestosterone production)
T2 construct: purchased GENTEST
T2 sequence (P08684 whole entry): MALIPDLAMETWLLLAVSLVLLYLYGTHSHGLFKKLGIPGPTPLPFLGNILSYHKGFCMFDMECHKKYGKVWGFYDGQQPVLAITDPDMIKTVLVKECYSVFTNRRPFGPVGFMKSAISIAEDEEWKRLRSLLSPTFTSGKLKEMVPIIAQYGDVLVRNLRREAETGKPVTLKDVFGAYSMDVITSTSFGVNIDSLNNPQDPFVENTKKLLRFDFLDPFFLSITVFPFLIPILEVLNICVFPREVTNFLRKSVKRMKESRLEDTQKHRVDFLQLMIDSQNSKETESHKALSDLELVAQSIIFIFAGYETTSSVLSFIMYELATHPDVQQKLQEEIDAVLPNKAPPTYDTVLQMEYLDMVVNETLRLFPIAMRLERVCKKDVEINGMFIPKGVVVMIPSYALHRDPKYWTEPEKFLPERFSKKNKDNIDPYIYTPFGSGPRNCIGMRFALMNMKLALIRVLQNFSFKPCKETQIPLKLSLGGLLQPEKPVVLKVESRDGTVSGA
Protocol: Assay of Human CYP3A4-Inhibitory Activity
Performed as in the following according to Journal of Biological Chemistry, vol. 256, 11937 (1983).
A phosphate buffer solution (50 mM, pH 7.4) containing testosterone (final concentration 100 μM, hereinafter the same), human CYP3A4 (10 pmol/ml, manufactured by GENTEST), NADPH producing system (0.5 mM NADP, 5 mM glucose-6-phosphate, 5 mM magnesium chloride, 1.5 units/ml glucose-6-phosphate dehydrogenase) and the test compound was incubated at 37° C. for 30 min. Acetonitrile was added to the reaction mixture and the mixture was stirred and centrifuged. The 6β-hydroxytestosterone in the obtained supernatant was analyzed by high performance liquid chromatography.

With `OC1(c2cccc(-c3ccc(F)cc3)c2)CCn2cncc21` (stereo not shown) [Example 3, 7-(4′-fluoro[1,1′-biphenyl]-3-yl)-6,7-dihydro-5H-pyrrolo[1,2-c]imidazol-7-ol] the IC50 (steroid C17,20-lyase) was 10 nM, the “inhibitory effect on testosterone biosynthesis (T/C, %)” value [1] was 4.4% and the IC50 (human CYP3A4) was 9600 nM.
Work on `CNC(=O)c1ccc2cc(C3(O)CCn4cncc43)ccc2c1` (stereo not shown) [Example 5, 6-(7-hydroxy-6,7-dihydro-5H-pyrrolo[1,2-c]imidazol-7-yl)-N-methyl-2-naphthamide] yielded an IC50 (steroid C17,20-lyase) of 54 nM.
For `CNC(=O)c1ccc2cc(C3(O)CCn4cncc43)ccc2c1` (single isomer, unassigned; (+)) [Example 11, (+)-6-(7-hydroxy-6,7-dihydro-5H-pyrrolo[1,2-c]imidazol-7-yl)-N-methyl-2-naphthamide], the IC50 (steroid C17,20-lyase) was 48 nM.
With `OC1(c2ccc(-c3ccc(F)cc3)cc2)CCn2cncc21` (stereo not shown) [Example 4, 7-(4′-fluoro[1,1′-biphenyl]-4-yl)-6,7-dihydro-5H-pyrrolo[1,2-c]imidazol-7-ol] the IC50 (steroid C17,20-lyase) was 25 nM and the IC50 (human CYP3A4) was > 10000 nM.
